From patent US10617734B2, “STAT3 and ERK signal pathway inhibitor comprising mogrosides and analogs thereof” (BEIJING UNIVERSITY OF AGRICULTURE, priority 2014, dated 2020)

Key:
[1] = tested on: cycle regulatory protein P21; test: Western Blotting of P21 in U937 cells; type: cell-based; conditions: 10 μmol/L, 24 h
Protocol: (§1) The STAT3 and ERK signal pathways can regulate cyclins and apoptosis genes, and in order to verify the effects of […] and mogrol, the expression status of downstream genes of STAT3 and ERK was detected, wherein the influences of the three mogrosides and analogs thereof, i.e. Mogrol I E1, Mogrol II A2 and mogrol, on Bcl-2 and P21 proteins in the histiocytic lymphoma U937 cells, human melanoma A875 cells and leukemia cells K562 were determined, respectively.
(§2) The regulation of Bcl-2 and P21 proteins by mogrosides and analog thereof to the was detected by Western Blotting, specifically: histiocytic lymphoma U937 cells, human melanoma A875 cells and leukemia cells K562 (1×10^6 cells/well) were inoculated into a 6-well culture plate overnight, and 0 and 10 μmol/L of the mogrosides and analogs thereof were added respectively, and kept cultured for 24 h. […]
(§3) The protein concentration was measured with bovine serum albumin (BSA) as the standard. 50 μg of the total proteins were separated by polyacrylamide gel electrophoresis with 12% SDS, and electrophoretically transferred to a PVDF membrane (polyvinylidene fluoride membrane), and blocked for 1 h by 5% of skim milk (containing 0.1% of Tween 20), and then antibodies P21, Bcl-2 and β-actin were added, wherein the primary antibody was incubated at 4° C. overnight (β-actin was used as reference loading amount); the membrane was washed for 3 times with TBS-T, 5 min each time; secondary antibody marked by horseradish peroxidase (HRP) was added for incubation at room temperature for 1 h, the membrane was washed with rinse solution (TBS-T) for 3 times, 10 min each time, and then ECL was added for incubation in dark for 5 min, and subsequently, a fluorescence imaging analyzer was used for image development and scanning analysis.

[2] = tested on: phosphorylated STAT3 (P-STAT3, Tyr705); test: Western Blotting of phosphorylated STAT3 in U937 cells; type: cell-based; conditions: 10 μmol/L, 24 hours
Protocol: (§4) The inhibition of the STAT3 and ERK signal pathways achieved by Mogroside I E1, Mogroside II A2 and mogrol was detected by Western Blotting, specifically:
Group 1: histiocytic lymphoma U937 cells (1×10^6 cells/well) were inoculated into a 6-well culture plate for staying overnight, and 0 and 10 μmol/L of Mogroside I E1, Mogroside II A2 and mogrol were added respectively, and the culture was continued for 24 hours;
(§5) After the termination of the cell culture, the culture solution was removed, and the residue was washed with PBS (0.01 mol/L, pH 7.4), and then a cell lysis solution containing protease inhibitors was added at an amount of 50 μl/well, and the mixture was placed in an ice bath for lysis at 4° C. for 30 min and then centrifuged at 14000 r/min for 10 min, and then total proteins were obtained from the supernatant;
(§6) The protein concentrations were measured with bovine serum albumin (BSA) as the standard. 50 μg of the total proteins was separated by polyacrylamide gel electrophoresis with 12% […], electrophoretically transferred to a PVDF membrane (polyvinylidene fluoride membrane), and blocked for 1 h by 5% of skim milk (containing 0.1% of Tween 20), and then antibodies p-STAT3 (Tyr705) and p-Erk1/2 as well as β-actin were added, and the primary antibody was incubated at 4° C. overnight (β-actin was used as reference in loading amount); the membrane was washed for 3 times with TBS-T, 5 min each time; secondary antibody marked by horseradish peroxidase (HRP) was added for incubation at room temperature for 1 h, the membrane was washed for 3 times with a wash solution (TBS-T), 10 min each time, and then ECL was added for incubation in dark for 5 min, and subsequently, a fluorescence imaging analyzer was used for image development and scanning analysis, and the results of Western Blotting detection are shown in FIGS. 4 to 6.

[3] = tested on: cycle regulatory protein P21; test: Western Blotting of P21 in A875 cells; type: cell-based; conditions: human melanoma A875 cells, 10 μmol/L, 24 h
Protocol: as §1, §2, §3

lymphoma U937 cells = test: Cell morphology, Hoechst 33258 staining, fluorescence microscope; type: cell-based; conditions: lymphoma U937 cells, 10, 100 and 250 μmol/L, 24-hour culture
Protocol: (§7) Lymphoma U937 cells, human melanoma A875 cells and leukemia cells K562 in logarithmic growth phase were selected, and the concentrations of the cells were adjusted to 1×10^4 cells/mL, and the cells were transferred to a 6-well plate for culture, and after the 24-hour culture, drugs were added to achieve final concentrations of 0, 10, 100 and 250 μmol/L, wherein only whole medium was added to the negative control groups, while Mogroside II A2 was added to the positive control groups, after 24-hour culture, waste solution was removed, and fixing solution was added to each well for fixing for 25 min, and then the resulting mixture was washed twice, 3 min each time, and then Hoechst 33258 staining solution was added for staining in dark at room temperature for 30 min, and the cell morphology variation was observed using a fluorescence microscope.

[4] = tested on: human melanoma A875 cells; test: as above; type: cell-based; conditions: A875 melanoma cells, 10, 100 and 250 μmol/L, 24-hour culture
Protocol: as §7

leukemia cells K562 [5] = test: Cell cycle distribution, PI staining, flow cytometer; type: cell-based, human; conditions: leukemia cells K562, 10 μmol/L, 24 h
Source text: (§8) The influences of Mogroside I E1, Mogroside II A2 and mogrol on the cell cycle distribution of the histiocytic lymphoma U937 cells, the human melanoma A875 cells and the leukemia cells K562.
(§9) The cell cycle arrest achieved by drugs is an important approach to the inhibition of cancer cell proliferation.

[6] = tested on: phosphorylated STAT3 (P-STAT3, Tyr705); test: Western Blotting of phosphorylated STAT3 in K562 cells; type: cell-based, human; conditions: leukemia cells K562, 10 μmol/L, 24 hours
Protocol: as §4
Group 3: leukemia cells K562 (1×10^6 cells/well) were inoculated into a 6-well culture plate for staying overnight, and 0 and 10 μmol/L of Mogroside I E1 Mogroside II A2 and mogrol were added respectively, and the culture was continued for 24 hours;
as §5, §6

[7] = tested on: anti-apoptotic protein Bcl-2; test: Western Blotting of Bcl-2 in K562 cells; type: cell-based, human; conditions: leukemia cells K562, 10 μmol/L, 24 h
Protocol: as §1, §2, §3

leukemia cells K562 [8] = test: Cell morphology, Hoechst 33258 staining, fluorescence microscope; type: cell-based, human; conditions: leukemia cells K562, 10, 100 and 250 μmol/L, 24-hour culture
Protocol: as §7

[9] = tested on: phosphorylated ERK1/2 (P-ERK1/2); test: Western Blotting of phosphorylated ERK1/2 in A875 cells; type: cell-based, human; conditions: melanoma A875 cells, 10 μmol/L, 24 hours
Protocol: as §4
Group 2: human melanoma A875 cells (1×10^6 cells/well) were inoculated into a 6-well culture plate for staying overnight, and 0 and 10 μmol/L of Mogroside I E1, Mogroside II A2 and mogrol were added respectively, and the culture was continued for 24 hours;
as §5, §6

[10] = tested on: histiocytic lymphoma U937 cells; test: Cell cycle distribution, PI staining, flow cytometer; type: cell-based; conditions: 24 h
Source text: as §8, §9

[11] = tested on: human melanoma A875 cells; test: as above; type: cell-based
Source text: as §8, §9

How did the “expression of cycle regulatory protein P21” value [1] turn out when `C[C@H](CC[C@@H](O)C(C)(C)O)[C@H]1CC[C@@]2(C)[C@@H]3CC=C4[C@@H](CC[C@H](O)C4(C)C)[C@]3(C)[C@H](O)C[C@]12C` [mogrol] was run?
Its value is “significantly up-regulated”.

What about the “expression level of phosphorylated STAT3 (P-STAT3)” value [2] of the same molecule?
Its value is “significantly decreased”.

And the “expression of cycle regulatory protein P21” value [3]?
The value was “significantly up-regulated”.

What about the “cell morphology variation (Hoechst 33258)” value (“cell morphology variation” below) (lymphoma U937 cells) of the same molecule?
Its value is “identical to the results of Mogroside II A2”.

What about the “cell morphology variation” value [4] of the same molecule?
The value was “identical to the results of Mogroside II A2”.

What about the “cell cycle distribution (cell cycle arrest)” value (leukemia cells K562 [5]) of the same molecule?
The value was “arrested”.

And the “expression level of phosphorylated STAT3 (P-STAT3)” value [6]?
Its value is “significantly decreased”.

And the “expression of anti-apoptotic protein Bcl-2” value [7]?
The value was “significantly down-regulated”.

What about the “cell morphology variation” value (leukemia cells K562 [8]) of the same molecule?
The value was “identical to the results of Mogroside II A2”.

What about the “expression level of phosphorylated ERK1/2 (P-ERK1/2)” value [9] of the same molecule?
Its value is “significantly decreased”.

And the “proportion of cells in G0/G1 phase with the rise of the concentration” value ([10]; U937 cells, 0, 1, 10, 150 and 250 μmol/L)?
The value was “gradually increased”.

What about the “cell cycle distribution (proportion of cells of G0/G1 phase)” value ([10]; U937 cells, 10 μmol/L) of the same molecule?
Its value is “G0/G1 arrest”.

And the “cell cycle distribution (proportion of cells in the G0/G1 phase)” value ([11]; human melanoma A875 cells, 10 μmol/L, 24 h)?
The value was “G0/G1 arrest”.

And the “proportion of cells in the G0/G1 phase with the rise of the concentration” value ([11]; melanoma A875 cells, different concentrations (FIG. 12))?
The value was “gradually increased”.
